Source: US10688093B2, “Methods, compositions, and uses of novel Fyn kinase inhibitors” (priority 2015, dated 2020)

Target: full-length recombinant human FYN A (Homo sapiens (Human), UniProt P06241)
Assay: ADP-Glo Kinase Assay of FYN kinase inhibition
Type: biochemical
Details: primary screen, initial compounds
Summary of the method: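 ADP-Glo read-out of peptide phosphorylation after 90 min RT with 12.5 pmol ATP and 100 pg 12-mer substrate. Enzyme was N-GST full-length human FYN A from insect cells, 3 pg, pre-incubated 30 min with compound, 10 points from 10 μM top, 3-fold steps; IC50 from curve.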

Chain of full-length recombinant human FYN A (P06241 whole entry): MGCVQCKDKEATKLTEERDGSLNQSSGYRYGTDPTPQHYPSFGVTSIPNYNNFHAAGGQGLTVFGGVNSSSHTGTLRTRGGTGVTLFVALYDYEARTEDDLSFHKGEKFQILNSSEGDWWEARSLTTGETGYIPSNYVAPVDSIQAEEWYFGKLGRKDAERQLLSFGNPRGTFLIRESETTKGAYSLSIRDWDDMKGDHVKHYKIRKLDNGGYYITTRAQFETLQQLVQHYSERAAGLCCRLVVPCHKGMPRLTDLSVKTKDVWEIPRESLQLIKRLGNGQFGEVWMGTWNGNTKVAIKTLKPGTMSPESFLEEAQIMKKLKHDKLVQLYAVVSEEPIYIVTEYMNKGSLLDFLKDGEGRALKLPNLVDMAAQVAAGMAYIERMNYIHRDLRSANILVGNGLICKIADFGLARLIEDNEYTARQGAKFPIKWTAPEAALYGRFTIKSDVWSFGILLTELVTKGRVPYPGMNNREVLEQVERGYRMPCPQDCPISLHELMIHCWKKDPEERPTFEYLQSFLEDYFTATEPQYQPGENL

| SMILES | IC50 [nM] |
| --- | --- |
| Nc1ccc(-c2cn3c(-c4ccsc4)cnc3cn2)cn1 [Compound 226, 5-[3-(3-thienyl)imidazo [1,2-a]pyrazin-6-yl]pyridin-2-amine] | 2460 |
| c1cc(-c2cn3c(-c4ccsc4)cnc3cn2)cs1 [Compound 227, 3,6-bis(3-thienyl)imidazo [1,2-a]pyrazine] | 8470 |
| CN(C)CCNC(=O)c1ccc(-c2cn3c(-c4ccsc4)cnc3cn2)cc1 [Compound 228, N-(2-dimethylamino-ethyl)-4-[3-(3-thienyl)imidazo [1,2-a]pyrazin-6-yl]benzamide] | 1900 |
| Cn1cc(-c2cnc3cnc(-c4ccccc4Oc4ccccc4)cn23)cn1 [Compound 229, 3-(1-methylpyrazol-4-yl)-6-(2-phenoxyphenyl) imidazo[1,2-a]pyrazine] | 1820 |
| CN1CCN(c2ccc(-c3cn4c(-c5cccc(O)c5)cnc4cn3)cn2)CC1 [Compound 230, 3-[6-[6-(4-methylpiperazin-1-yl)-3-pyridyl]imidazo [1,2-a]pyrazin-3-yl]phenol] | 3140 |
| CN(C)CCCOc1ccc(-c2cn3c(-c4ccc5c(c4)OCO5)cnc3cn2)cn1 [Compound 231, 3-[[5-[3-(1,3-benzodioxol-5-yl)imidazo[1,2-a]pyrazin-6-yl]-2-pyridyl]oxy]-N,N-dimethyl-propan-1-amine] | 9850 |
| CCOc1cccc(-c2cn3c(-c4cccc(O)c4)cnc3cn2)c1 [Compound 232, 3-[6-(3-ethoxyphenyl)imidazo[1,2-a]pyrazin-3-yl]phenol] | 6690 |
| CN1CCN(c2ccc(-c3cn4c(-c5ccc6c(c5)OCO6)cnc4cn3)cc2)CC1 [Compound 233, 3-(1,3-benzodioxol-5-yl)-6-[4-(4-methylpiperazin-1-yl)phenyl] imidazo[1,2-a]pyrazine] | 7930 |
| Oc1cccc(-c2cnc3cnc(-c4ccsc4)cn23)c1 [Compound 234, 3-[6-(3-thienyl)imidazo [1,2-a]pyrazin-3-yl]phenol] | 2520 |
| CN1CCN(c2ccc(-c3cn4c(-c5cccc(O)c5)cnc4cn3)cc2)CC1 [Compound 235, 3-[6-[4-(4-methyl-piperazin-1-yl)phenyl]imidazo [1,2-a]pyrazin-3-yl]phenol] | 1590 |
| CN(C)CCCNC(=O)c1ccc(-c2cn3c(-c4ccc(Cl)cc4)cnc3cn2)cc1 [Compound 236, 4-[3-(4-chlorophenyl)imidazo[1,2-a]pyrazin-6-yl]-N-[3-(dimethylamino)propyl]benzamide] | 4900 |
| CN(C)CCNC(=O)c1ccc(-c2cn3c(-c4ccc5c(c4)OCO5)cnc3cn2)cc1 [Compound 237, 4-[3-(1,3-benzodioxol-5-yl)imidazo[1,2-a]pyrazin-6-yl]-N-(2-dimethyl-aminoethyl) benzamide] | 3800 |
| Nc1ccc(-c2cn3c(-c4cccc(O)c4)cnc3cn2)cn1 [Compound 238, 3-[6-(6-amino-3-pyridyl)imidazo [1,2-a]pyrazin-3-yl]phenol] | 2890 |
| CN(C)CCNC(=O)c1ccc(-c2cn3c(-c4cccc(O)c4)cnc3cn2)cc1 [Compound 239, N-(2-dimethylamino-ethyl)-4-[3-(3-hydroxyphenyl)imidazo[1,2-a]pyrazin-6-yl]benzamide] | 812 |
| CN(C)CCNC(=O)c1ccc(-c2cn3c(-c4ccc(Cl)cc4)cnc3cn2)cc1 [Compound 240, 4-[3-(4-chlorophenyl)imidazo[1,2-a]pyrazin-6-yl]-N-(2-dimethylamino-ethyl)benzamide] | 4160 |
| Oc1cccc(-c2cnc3cnc(-c4ccc(NCCN5CCOCC5)nc4)cn23)c1 [Compound 241, 3-[6-[6-(2-morpholino-ethylamino)-3-pyridyl]imidazo [1,2-a]pyrazin-3-yl]phenol] | 2940 |
| CN(C)CCCNC(=O)c1ccc(-c2cn3c(-c4cccc(O)c4)cnc3cn2)cc1 [Compound 242, N-[3-(dimethylamino)propyl]-4-[3-(3-hydroxyphenyl)imidazo[1,2-a]pyrazin-6-yl]benzamide] | 1610 |
| O=C(NCCO)c1ccc(-c2cn3c(-c4cccc(O)c4)cnc3cn2)cc1 [Compound 243, N-(2-hydroxyethyl)-4-[3-(3-hydroxyphenyl)imidazo[1,2-a]pyrazin-6-yl]benzamide] | 1720 |
| CN(C)CCCNC(=O)c1ccc(-c2cn3c(-c4ccc5c(c4)OCO5)cnc3cn2)cc1 [Compound 244, 4-[3-(1,3-benzodioxol-5-yl)imidazo[1,2-a]pyrazin-6-yl]-N-[3-(dimethylamino)propyl]benzamide] | 6030 |
| CN1CCN(c2ccc(-c3cn4c(-c5ccccc5)cnc4cn3)cn2)CC1 [Compound 245, 6-[6-(4-methylpiperazin-1-yl)-3-pyridyl]-3-phenyl-imidazo[1,2-a]pyrazine] | 10900 |
| CC(C)N1CCN(c2ccc(-c3cn4c(-c5cccc(O)c5)cnc4cn3)cc2)CC1 [Compound 246, 3-[6-[4-(4-isopropyl-piperazin-1-yl)phenyl]imidazo [1,2-a]pyrazin-3-yl]phenol] | 2610 |

| SMILES | IC50 [nM] |
| --- | --- |
| Nc1ccc(-c2cn3c(-c4ccc5c(c4)OCO5)cnc3cn2)cn1 [Compound 247, 5-[3-(1,3-benzodioxol-5-yl)imidazo[1,2-a]pyrazin-6-yl]pyridin-2-amine] | 10200 |
| CN(C)CCCOc1ccc(-c2cn3c(-c4ccc(O)cc4)cnc3cn2)cn1 [Compound 248, 4-[6-[6-[3-(dimethylamino)propoxy]-3-pyridyl]imidazo [1,2-a]pyrazin-3-yl]phenol] | 1320 |
| Oc1ccc(-c2cnc3cnc(-c4ccc(NCCN5CCOCC5)nc4)cn23)cc1 [Compound 249, 4-[6-[6-(2-morpholino-ethylamino)-3-pyridyl]imidazo [1,2-a]pyrazin-3-yl]phenol] | 1310 |
| CN1CCN(c2ccc(-c3cn4c(-c5ccc(O)cc5)cnc4cn3)cn2)CC1 [Compound 250, 4-[6-[6-(4-methylpiperazin-1-yl)-3-pyridyl]imidazo [1,2-a]pyrazin-3-yl]phenol] | 2210 |
| CN(C)C(=O)c1cccc(-c2cnc3sc(NC4CCCCC4)nn23)c1 [Compound 251, 3-[2-(cyclo-hexylamino)imidazo[2,1-a] [1,3,4]thiadiazol-5-yl]-N,N-dimethyl-benzamide] | 718 |
| CN(C)C(=O)c1cccc(-c2cnc3sc(NCCc4ccc(S(N)(=O)=O)cc4)nn23)c1 [Compound 252, N,N-dimethyl-3-[2-[2-(4-sulfamoylphenyl)ethylamino]imidazo[2,1-a] [1,3,4]thiadiazol-5-yl]benzamide] | 909 |
| CN(C)C(=O)c1cccc(-c2cnc3sc(NC4CCC(O)CC4)nn23)c1 (stereo not drawn) [Compound 253, 3-[2-[(4-hydroxycyclo-hexyl)amino]imidazo[2,1-b] [1,3,4]thiadiazol-5-yl]-N,N-dimethyl-benzamide] | 533 |
| CC(=O)c1cccc(-c2cnc3sc(NC4CCC(O)CC4)nn23)c1 (stereo not drawn) [Compound 254, 1-[3-[2-[(4-hydroxycyclo-hexyl)amino]imidazo[2,1-a] [1,3,4]thiadiazol-5-yl]phenyl] ethanone] | 487 |
| COc1ccc(-c2cnn3c(N)c(-c4cccc(Cl)c4)cnc23)cc1OC [Compound 255, 6-(3-chlorophenyl)-3-(3,4-dimethoxyphenyl) pyrazolo[1,5-a]pyrimidin-7-amine] | 804 |
| CC(=O)Nc1cccc(-c2cnc3sc(NCc4ccco4)nn23)c1 [Compound 256, N-[3-[2-(2-furylmethylamino)imidazo[2,1-a] [1,3,4]thiadiazol-5-yl]phenyl] acetamide] | 4570 |
| CN(C)C(=O)c1cccc(-c2cnc3sc(NCC4CC4)nn23)c1 [Compound 257, 3-[2-(cyclopropyl-methylamino)imidazo[2,1-d] [1,3,4]thiadiazol-5-yl]-N,N-dimethyl-benzamide] | 977 |
| CC(C)CNc1nn2c(-c3cccc(C(=O)N(C)C)c3)cnc2s1 [Compound 258, 3-[2-(isobutylamino)imidazo[2,1-d] [1,3,4]thiadiazol-5-yl]-N,N-dimethyl-benzamide] | 283 |
| CN(C)C(=O)c1cccc(-c2cnc3sc(NCc4ccc(F)cc4)nn23)c1 [Compound 259, 3-[2-[(4-fluorophenyl)methylamino]imidazo[2,1-b] [1,3,4]thiadiazol-5-yl]-N,N-dimethyl-benzamide] | 2760 |
| CC(=O)Nc1cccc(-c2cnc3sc(NCc4cccs4)nn23)c1 [Compound 260, N-[3-[2-(2-thienylmethyl-amino)imidazo [2,1-b] [1,3,4]thiadiazol-5-yl]phenyl] acetamide] | 3930 |
| Cn1cc(-c2cnc3sc(NCCc4ccc(S(N)(=O)=O)cc4)nn23)cn1 [Compound 261, 4-[2-[[5-(1-methylpyrazol-4-yl)imidazo[2,1-d][1,3,4]thiadiazol-2-yl]amino]ethyl] benzene-sulfonamide] | 2260 |
| CN(C)c1cccc(-c2cnc3sc(NC4CCC(O)CC4)nn23)c1 (stereo not drawn) [Compound 262, 4-[[5-[3-(dimethylamino)phenyl]imidazo [2,1-a] [1,3,4]thiadiazol-2-yl]amino] cyclohexanol] | 5790 |
| CC(C)CNc1nn2c(-c3cccc(NS(C)(=O)=O)c3)cnc2s1 [Compound 263, N-[3-[2-(isobutylamino)imidazo[2,1-b] [1,3,4]thiadiazol-5-yl]phenyl] methane-sulfonamide] | 7070 |
| NC(=O)c1cccc(-c2cnc3sc(NCCCO)nn23)c1 [Compound 264, 3-[2-(3-hydroxypropyl-amino)imidazo [2,1-b][1,3,4]thiadiazol-5-yl]benzamide] | 2880 |
| Oc1ccc(-c2cnc3sc(NC4CCC(O)CC4)nn23)cc1 (stereo not drawn) [Compound 265, 4-[2-[(4-hydroxycyclo-hexyl)amino]imidazo[2,1-b] [1,3,4]thiadiazol-5-yl]phenol] | 3800 |
| NC(=O)c1cccc(-c2cnc3sc(NCc4ccco4)nn23)c1 [Compound 266, 3-[2-(2-furylmethyl-amino)imidazo[2,1-b] [1,3,4]thiadiazol-5-yl]benzamide] | 1230 |
| COc1ccc(-c2cnc3sc(NCCc4ccc(S(N)(=O)=O)cc4)nn23)cn1 [Compound 267, 4-[2-[[5-(6-methoxy-3-pyridyl)imidazo [2,1-b] [1,3,4]thiadiazol-2-yl]amino]ethyl]benzene-sulfonamide] | 2610 |
